# Experimental data from US6495606B1, “Nitric oxide synthase inhibitors” (SmithKline Beecham Corporation, priority 1998, dated 2002).
# Legend:
# human iNOS = target: T1, human iNOS (Homo sapiens, UniProt P35228); assay: Inhibition of isolated human iNOS; format: biochemical; details: purified human iNOS, haemoglobin absorption assay
# T1 construct: made in house
# From the text: 1. Inhibition of Isolated Human iNOS
# The inhibition of purified human iNOS may be determined using a preparation of human iNOS as described in the chapter “Expression if Human Nitric Oxide Synthase Isozymes” by Charles et al in Methods in Enzymology, 1996 Volume 268, 449-460. Activity may be monitored using quantitative absorption changes of haemoglobin as described by R. G. Knowles and J. Dawson in “A Microtitreplate Assay of Human NOS Isoforms” in Methods in Molecular Biology, 1998, Volume 100, 237-242, Nitric Oxide Protocols, Ed M. A. Titheradge, Humana Press, Totowa N.J.
# eNOS = target: T2, eNOS (Rattus norvegicus, UniProt Q62600); assay: Inhibition of eNOS in situ in rat aortic rings (basal tone, intact endothelium, ring tension); format: cell-based; details: rat aortic rings with intact endothelium, threshold phenylephrine
# T2 construct: from tissue; host or cells: rat thoracic aorta rings with intact endothelium
# Protocol: (§1) 2. Inhibition of eNOS and INOS in Rat Aortic Rings
# (§2) The inhibition of eNOS and iNOS in situ in rat aortic rings was assessed by measuring the increases in ring tension caused by NO synthase inhibition. For studies of basal tone (reflecting eNOS), rings of thoracic aorta with intact endothelium were prepared as described previously (Rees et at. (1989) Br. J. Pharmol. 96, 418-424) and cumulative concentration curves obtained for the inhibitors in the presence of a threshold concentration of phenylephrine (ED10≈10 nM). For studies of induced smooth muscle tone (reflecting iNOS), endothelium-denuded rings were exposed to LPS (0.1 μg/ml from S. typhosa) in the presence of phenylephrine at approximately ED90 for 6 h as described previously (Rees et al. (1990) Biochem. Biophys. Res. Commun. 173, 541-547). During this time a progressive loss of tone occurred because of iNOS induction. Cumulative concentration curves were then obtained for the inhibitors.
# nNOS = target: T3, nNOS (Rattus norvegicus, UniProt P29476); assay: Inhibition of nNOS in rat cortical slices (14C-arginine to 14C-citrulline); format: cell-based
# T3 construct: rat cerebral cortex slices; from tissue; host or cells: rat cerebral cortex slices (McIlwain-chopped)
# Protocol: 3. Inhibition of nNOS in Rat Cortical Slices
# The effects of compounds on nNOS in rat brain slices was determined as described in Furfine et al (1994) J. Biol. Chem. 269, 26677-26683 and Lizasoain et al (1995) J. Neurochem. 64, 636-642. KCl (54 mM)—stimulated NO synthesis was measured by the conversion of 14C-arginine to 14C-citrulline over a 2 h period at 37° C. in Mcllwain—chopped (0.2 mm ×0.2 mm) rat cerebral cortex slices, following a 1 h preincubation period in the absence of compound or high KCl.
# iNOS = target: T4, iNOS (Rattus norvegicus, UniProt Q06518); assay: Inhibition of iNOS in situ in rat aortic rings (LPS-induced, endothelium-denuded, ring tension); format: cell-based
# T4 construct: endothelium-denuded rings were exposed to LPS; from tissue; host or cells: rat thoracic aorta rings, endothelium-denuded, LPS-treated
# Protocol: as §1, §2
# [1] = Oral bioavailability and pharmacokinetics in rats; format: in vivo, rat
# Protocol: 4. Method for Determining the Oral Bioavailability of iNOS Inhibitor Compounds
# Rats (3 animals per time point) were dosed intravenously (10 mg/kg) and orally (50 mg/kg) with test compound in an aqueous solution. Blood samples were taken at time intervals after administration and plasma prepared by centrifugation. Samples were stored at −20° C. until analysis.
# Plasma (50 μl) was de-proteinated and compound derivatised with a quaternary ammonium reagent. Samples were then injected onto an HPLC system and compound concentration determined using mass spectrometric detection.
# The plasma concentrations obtained by the above method were entered into a pharmacokinetic software package (PKCAL v 1.2s) and the data were fitted using a non-compartmental method. The oral bioavailability of the compounds was determined by comparing the Area Under the Curve (AUC) values calculated by the software for the oral profile with the AUC for the intravenous profile. The half-lives were obtained by fitting the terminal phase time points of the intravenous profile.
# T1 sequence (P35228 whole entry): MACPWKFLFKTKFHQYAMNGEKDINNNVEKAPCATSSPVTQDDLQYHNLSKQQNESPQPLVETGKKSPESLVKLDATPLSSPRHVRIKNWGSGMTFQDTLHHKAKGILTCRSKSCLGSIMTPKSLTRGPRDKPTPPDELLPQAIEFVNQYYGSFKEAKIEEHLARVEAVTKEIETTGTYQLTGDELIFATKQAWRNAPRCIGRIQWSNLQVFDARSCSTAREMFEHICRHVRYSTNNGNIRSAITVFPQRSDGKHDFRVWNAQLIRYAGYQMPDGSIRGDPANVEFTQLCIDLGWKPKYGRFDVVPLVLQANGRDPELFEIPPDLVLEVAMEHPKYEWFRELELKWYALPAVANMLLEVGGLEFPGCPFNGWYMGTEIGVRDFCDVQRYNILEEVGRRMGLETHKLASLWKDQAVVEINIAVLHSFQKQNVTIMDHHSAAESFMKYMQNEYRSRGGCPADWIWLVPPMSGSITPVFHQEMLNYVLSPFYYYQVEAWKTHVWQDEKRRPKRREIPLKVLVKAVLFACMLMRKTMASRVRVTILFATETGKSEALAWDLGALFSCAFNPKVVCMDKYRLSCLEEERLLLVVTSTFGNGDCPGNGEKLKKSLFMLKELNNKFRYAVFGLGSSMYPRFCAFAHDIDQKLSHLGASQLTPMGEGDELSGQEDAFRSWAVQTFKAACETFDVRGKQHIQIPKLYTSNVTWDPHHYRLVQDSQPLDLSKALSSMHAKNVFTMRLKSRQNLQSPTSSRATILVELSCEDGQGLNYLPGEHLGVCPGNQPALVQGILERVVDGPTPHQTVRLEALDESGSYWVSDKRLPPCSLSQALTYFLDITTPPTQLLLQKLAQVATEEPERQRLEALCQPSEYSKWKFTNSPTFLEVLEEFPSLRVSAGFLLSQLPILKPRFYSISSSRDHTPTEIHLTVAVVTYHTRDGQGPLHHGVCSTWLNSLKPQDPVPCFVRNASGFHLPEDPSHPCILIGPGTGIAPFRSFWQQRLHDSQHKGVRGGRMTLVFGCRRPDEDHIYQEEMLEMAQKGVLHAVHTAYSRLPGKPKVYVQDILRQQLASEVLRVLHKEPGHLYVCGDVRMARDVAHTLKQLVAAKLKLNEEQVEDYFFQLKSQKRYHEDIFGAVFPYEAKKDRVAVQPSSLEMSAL
# T4 sequence (Q06518 whole entry): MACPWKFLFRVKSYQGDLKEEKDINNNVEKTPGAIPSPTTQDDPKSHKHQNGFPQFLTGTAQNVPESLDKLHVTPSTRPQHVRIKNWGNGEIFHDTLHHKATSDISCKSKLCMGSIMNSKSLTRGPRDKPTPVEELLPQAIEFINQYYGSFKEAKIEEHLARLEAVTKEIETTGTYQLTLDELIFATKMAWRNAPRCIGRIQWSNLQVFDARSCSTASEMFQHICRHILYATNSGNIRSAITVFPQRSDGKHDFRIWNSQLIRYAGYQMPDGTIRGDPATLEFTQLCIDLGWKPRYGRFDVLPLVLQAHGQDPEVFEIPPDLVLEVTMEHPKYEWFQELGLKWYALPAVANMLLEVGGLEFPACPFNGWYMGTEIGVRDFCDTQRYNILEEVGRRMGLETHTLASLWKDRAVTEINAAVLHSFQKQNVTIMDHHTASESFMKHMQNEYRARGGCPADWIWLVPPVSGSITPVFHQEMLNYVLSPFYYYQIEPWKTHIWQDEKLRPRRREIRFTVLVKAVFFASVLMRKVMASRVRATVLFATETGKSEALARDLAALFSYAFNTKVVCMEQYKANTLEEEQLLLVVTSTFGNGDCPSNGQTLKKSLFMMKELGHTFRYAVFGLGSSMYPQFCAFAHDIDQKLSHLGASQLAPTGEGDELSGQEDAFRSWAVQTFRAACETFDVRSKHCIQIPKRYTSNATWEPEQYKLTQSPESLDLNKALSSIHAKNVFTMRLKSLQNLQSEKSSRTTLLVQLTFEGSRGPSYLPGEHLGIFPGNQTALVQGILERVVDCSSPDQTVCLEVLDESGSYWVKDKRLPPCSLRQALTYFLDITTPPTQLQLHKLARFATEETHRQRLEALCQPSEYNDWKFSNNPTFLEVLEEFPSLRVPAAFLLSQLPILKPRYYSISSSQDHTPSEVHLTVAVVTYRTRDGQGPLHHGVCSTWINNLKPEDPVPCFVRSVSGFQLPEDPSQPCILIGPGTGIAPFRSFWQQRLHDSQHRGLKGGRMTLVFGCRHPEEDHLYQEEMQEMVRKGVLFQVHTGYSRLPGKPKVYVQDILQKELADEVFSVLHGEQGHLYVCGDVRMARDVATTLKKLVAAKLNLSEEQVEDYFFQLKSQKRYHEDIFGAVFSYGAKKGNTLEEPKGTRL
# T3 sequence (P29476 whole entry): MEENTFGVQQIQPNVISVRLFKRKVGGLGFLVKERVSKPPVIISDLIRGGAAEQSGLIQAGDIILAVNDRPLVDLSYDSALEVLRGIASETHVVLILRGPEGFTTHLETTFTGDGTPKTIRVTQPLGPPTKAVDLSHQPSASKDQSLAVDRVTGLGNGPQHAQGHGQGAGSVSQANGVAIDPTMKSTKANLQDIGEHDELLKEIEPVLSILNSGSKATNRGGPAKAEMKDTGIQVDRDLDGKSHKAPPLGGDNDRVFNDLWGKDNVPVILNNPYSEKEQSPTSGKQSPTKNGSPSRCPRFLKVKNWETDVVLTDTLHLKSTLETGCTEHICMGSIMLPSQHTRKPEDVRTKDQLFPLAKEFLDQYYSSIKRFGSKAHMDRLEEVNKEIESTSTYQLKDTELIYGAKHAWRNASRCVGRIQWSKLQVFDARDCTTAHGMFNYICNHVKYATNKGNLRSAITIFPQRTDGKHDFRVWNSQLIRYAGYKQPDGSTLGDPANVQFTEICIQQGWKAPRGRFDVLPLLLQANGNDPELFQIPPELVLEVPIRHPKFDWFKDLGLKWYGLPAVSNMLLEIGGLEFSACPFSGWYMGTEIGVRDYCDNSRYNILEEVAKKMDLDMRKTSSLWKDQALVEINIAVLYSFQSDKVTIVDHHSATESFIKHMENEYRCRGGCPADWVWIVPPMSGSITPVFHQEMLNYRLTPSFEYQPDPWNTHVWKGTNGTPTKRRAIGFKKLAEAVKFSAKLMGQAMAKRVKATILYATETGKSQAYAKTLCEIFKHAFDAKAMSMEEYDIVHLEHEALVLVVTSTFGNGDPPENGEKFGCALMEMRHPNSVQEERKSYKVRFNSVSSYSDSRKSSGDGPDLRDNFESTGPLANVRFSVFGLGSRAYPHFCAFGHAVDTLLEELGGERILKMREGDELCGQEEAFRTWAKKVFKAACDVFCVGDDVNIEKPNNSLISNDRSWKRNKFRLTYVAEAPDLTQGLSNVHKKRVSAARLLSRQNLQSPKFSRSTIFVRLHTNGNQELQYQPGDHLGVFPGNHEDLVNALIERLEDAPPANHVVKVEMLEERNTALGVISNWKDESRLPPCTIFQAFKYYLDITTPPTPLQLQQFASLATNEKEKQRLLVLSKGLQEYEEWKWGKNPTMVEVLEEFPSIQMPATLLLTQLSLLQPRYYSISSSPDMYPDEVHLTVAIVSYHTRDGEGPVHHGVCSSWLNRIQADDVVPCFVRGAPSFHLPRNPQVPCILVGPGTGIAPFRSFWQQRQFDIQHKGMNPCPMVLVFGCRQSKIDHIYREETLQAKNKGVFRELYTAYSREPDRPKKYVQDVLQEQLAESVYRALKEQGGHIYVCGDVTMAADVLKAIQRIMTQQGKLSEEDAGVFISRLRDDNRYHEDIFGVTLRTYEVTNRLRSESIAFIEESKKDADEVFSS
# T2 sequence (Q62600 2-1202): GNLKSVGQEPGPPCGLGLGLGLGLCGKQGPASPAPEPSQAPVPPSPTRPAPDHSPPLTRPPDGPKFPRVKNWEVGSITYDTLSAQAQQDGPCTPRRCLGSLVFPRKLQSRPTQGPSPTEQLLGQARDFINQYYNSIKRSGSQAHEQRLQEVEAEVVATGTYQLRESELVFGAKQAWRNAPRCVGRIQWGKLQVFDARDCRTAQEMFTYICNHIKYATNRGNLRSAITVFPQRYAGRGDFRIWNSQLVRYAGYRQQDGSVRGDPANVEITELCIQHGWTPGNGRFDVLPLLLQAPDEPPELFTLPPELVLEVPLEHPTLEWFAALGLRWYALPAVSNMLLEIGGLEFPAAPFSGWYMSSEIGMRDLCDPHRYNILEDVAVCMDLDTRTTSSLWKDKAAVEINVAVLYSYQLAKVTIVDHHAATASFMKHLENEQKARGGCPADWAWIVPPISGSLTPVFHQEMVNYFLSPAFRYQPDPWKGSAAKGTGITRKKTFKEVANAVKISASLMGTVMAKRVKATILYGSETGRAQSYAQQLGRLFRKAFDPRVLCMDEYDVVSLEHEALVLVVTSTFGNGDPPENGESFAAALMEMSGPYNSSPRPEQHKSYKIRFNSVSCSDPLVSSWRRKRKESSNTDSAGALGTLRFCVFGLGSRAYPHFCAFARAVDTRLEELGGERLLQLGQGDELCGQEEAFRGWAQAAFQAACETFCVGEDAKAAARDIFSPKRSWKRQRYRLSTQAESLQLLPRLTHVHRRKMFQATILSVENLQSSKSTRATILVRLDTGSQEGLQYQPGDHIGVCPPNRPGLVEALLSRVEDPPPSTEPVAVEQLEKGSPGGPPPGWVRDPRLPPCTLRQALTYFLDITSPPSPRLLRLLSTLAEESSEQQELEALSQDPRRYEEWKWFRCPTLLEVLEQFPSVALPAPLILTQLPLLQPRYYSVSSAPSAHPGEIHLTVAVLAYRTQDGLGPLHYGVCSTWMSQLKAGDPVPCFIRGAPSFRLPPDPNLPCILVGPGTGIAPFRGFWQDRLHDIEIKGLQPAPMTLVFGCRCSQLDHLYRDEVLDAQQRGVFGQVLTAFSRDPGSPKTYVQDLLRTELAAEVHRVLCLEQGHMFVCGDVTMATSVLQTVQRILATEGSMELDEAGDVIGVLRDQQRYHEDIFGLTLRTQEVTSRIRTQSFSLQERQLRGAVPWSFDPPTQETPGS
substance,measurement,setting,value
"S-[(R/S)-2-(1-Iminoethylamino, 2-Cyclopropyl)ethyl]-L-cysteine Dihydrochloride [Example 7]",IC50,human iNOS,6.2 µM
S-[(S)-2-(1-Iminoethylamino)propyl]-D-cysteine Dihydrochloride [Example 3],IC50,human iNOS,6.6 µM
S-[(S)-2-(1-Iminoethylamino)propyl]-L-cysteine Dihydrochloride [Example 2],IC50,human iNOS,39 µM
S-[(R)-2-(1-Iminoethylamino)propyl]-D-cysteine Dihydrochloride [Example 4],IC50,human iNOS,48 µM
S-[(R)-2-(1-Iminoethylamino)propyl]-L-cysteine Dihydrochloride [Example 1],IC50,eNOS,> 20 µM
same,IC50,"nNOS; rat cerebral cortex slices, KCl (54 mM)-stimulated NO synthesis, 2 h, 37° C.",> 80 µM
same,selectivity for iNOS versus nNOS,nNOS; rat tissue assays,> 300 fold
same,selectivity iNOS vs eNOS,iNOS,>75
same,IC50,"iNOS; endothelium-denuded, LPS 0.1 μg/ml 6 h, phenylephrine approx. ED90",260 nM
same,half-life,"[1]; intravenous 10 mg/kg, terminal phase",2 to 4 h
same,oral bioavailability,"[1]; oral 50 mg/kg vs intravenous 10 mg/kg, AUC comparison",> 90%
same,IC50,human iNOS,2 µM
